Results as given in patent US20110183942A1, “Methods and Compositions for Treating Alzheimer's Disease” (UNIVERSITY OF MEDICINE AND DENTISTRY OF NEW JERSEY, priority 2008, published 2011).
Values joined by “and” are separate entries in the source; they are usually repeats but may differ in a detail not shown here. Equal values may be shown once. “Also recorded” adds a separate entry of the source. Read-outs that look alike come from different tables or passages of the source. *1 amine or outer side, *2 acyl side, *3 side chain or, on linkers, in order; H or OH if unused. Where a SMILES comes first, the peptide text is derived from it. Bridges are numbered along the chain shown (N, C = ends). Roman numbers before positions name the chains, in order. Where no end group is shown, it is not given here. [ ]: non-standard residue; d: D form. The star is where a group is joined. Actinocin(9to1) = Cc1c2oc3c(C)ccc(C(=O)[*:1])c3nc-2c(C(=O)[*:2])c(N)c1=O; NMeV = CN[C@H](C(=O)O)C(C)C; Cbz = O=C(OCc1ccccc1)*; Sar = CNCC(=O)O

Legend:
[1] = tested on: surface AMPA receptor (GluR2/3, GluR1) in cultured neurons; experiment: Surface biotinylation assay of AMPA receptor subunits; format: cell-based, mouse
Procedure: For surface biotinylation, drug-treated cortical neurons were cooled on ice, washed twice with ice-cold PBS++ (1× PBS, 1 mM CaCl2, 0.5 mM MgCl2) and then incubated with PBS++ containing 1 mg/ml Sulfo-NHS-SSBiotin (Pierce) for 30 min at 4° C. Unreacted biotin was quenched by washing cells three times with PBS++ containing 100 mM Glycine (pH 7.4) (briefly once and for 5 min twice). Cultures were harvested in RIPA buffer and sonicated. Homogenates were centrifuged at […] for 20 min at 4° C. Fifteen % of supernatant was saved as the total protein. […] Precipitates were washed with RIPA buffer three times (5 min each time). All procedures were done at 4° C.

[2] = target: T1, eEF2 kinase (Homo sapiens, UniProt O00418); experiment: Peptide substrate phosphorylation by eEF2 kinase; format: biochemical
T1 construct: made in house; host or cells: E. coli
From the text: While alpha-kinase phosphorylation sites are typically found within alpha-helicies of peptide substrates, it was unknown for eEF2K if alpha-kinases recognized target substrates based on a specific primary peptide sequence around the phosphorylation site of eEF2K, or whether the alpha-helical secondary structure is responsible for the phosphorylation by alpha-kinases. To clarify this an arrayed peptide library screen was used (Turk, Yale Med. Sch. Dept. Pharmacol.) that thoroughly evaluated for specific kinase preference all 20 amino acids at each of nine positions neighboring the phosphorylation site.
Every peptide comprising this library contained a central fixed phosphorylation site where equimolar quantities of threonine and serine were introduced; each peptide also contained a carboxy-terminal biotin label. […]
Reactions in this screen were run for a given incubation time and then spotted simultaneously on a streptavidin membrane through use of a high throughput capillary-based liquid transfer device. Submersion of the membrane in a specified quenching solution stripped away unincorporated ATP and then radiolabeled-ATP incorporation was measured using a phosphoimager. […]

[3] = target: eEF2K (Homo sapiens, UniProt O00418); experiment: eEF2K activity in vitro; format: biochemical
[4] = tested on: Arc protein in DIV14 forebrain neurons; experiment: Western blot of Arc protein in cultured forebrain neurons; format: cell-based, mouse; details: for level of Arc protein, low dose cycloheximide: 10 min; for level of Arc protein after BDNF: BDNF 10 ng/ml
Procedure: For biochemistry experiments, 0.4×10^6 neurons were added to each well of a 6-well plate (Coming) coated with poly-L-lysine. Growth medium consisted of NeuroBasal (Invitrogen) supplemented with 1% fetal bovine serum (Hyclone), 2% B27, 1% Glutamax (Invitrogen), 100 U/mL penicillin, and 100 U/mL streptomycin (Invitrogen). Neurons were fed twice per week with glia conditioned growth medium.
Transfected HEK293T cells or cultured neurons were treated with various drugs and then harvested in IP buffer supplemented with 1% Triton X-100 buffer and Complete™ EDTA-Free protease inhibitors. Soluble fractions were diluted with 4× SDS sample buffer.
The membrane was blocked with TBST (50 mM Tris, pH 7.5, with 150 mM NaCl, and 0.1% Tween-20) containing 5% non-fat milk for one hour at room temperature, followed by incubation with primary antibody in TBST buffer overnight at 4° C. After three washes with TBST buffer, membranes were incubated with HRP-conjugated anti-rabbit, or anti-mouse antibody in TBST for another hour. After three washes with TBST buffer, the membrane was treated with SuperSignal ECL substrate (Pierce) according to the manufacturer's protocol.
To reduce the background signal in the co-IP assay, HRP-conjugated HA or HPR conjugated myc antibody (Santa Cruz) was used when overexpressed proteins were tagged with HA or myc. […] Image J software (NIH) was used for quantification.

[5] = tested on: hippocampal Schaffer collateral-CA1 synapses; experiment: Field recording of fEPSP (mGluR-LTD) in acute hippocampal slices; format: cell-based, mouse; details: for DHPG-LTD in the presence of high dose cycloheximide: cycloheximide 60 μM, t=105 min
Procedure: For recording, slices were placed in a submersion recording chamber and perfused with 30° C. ACSF at a rate of 2 ml/min.
fEPSPs were recorded with extracellular recording electrodes (1.0 MΩ) filled with ACSF and placed in the stratum radiatum of area CA1. Synaptic responses were evoked by a 200-μsec current pulse to Schaffer collateral axons with a concentric bipolar tungsten stimulating electrode. Stable baseline responses were collected every 30 sec by using a stimulation intensity (10-30 μA) yielding 50-60% of the maximal fEPSP slope response.
mGluR-LTD was induced by a mGluR1/5 agonist, (R,S)-3,5-DHPG (Tocris), or by electrical stimulations. […] NMDAR dependent-LTD was induced by using 900 single pulses delivered at 1 Hz.

[6] = tested on: global protein synthesis in cultured neurons; experiment: Metabolic labeling, incorporation of 35S methionine and cysteine into TCA precipitant; format: cell-based; details: 100 nM cycloheximide
Procedure: To measure the incorporation of ^35S methionine and cysteine into new peptide, 30 μl protein labeling mix (Perkin Elmer) was added into 1.5 ml of regular culture medium (final 220 μCi/ml) for the time indicated in the figures. After washout once with ice-cold PBS, cells were lysed with 700 μl of RIPA buffer. After quantification of total amount of protein, equal amount of lysate (˜200 μl) was precipitated with 10% TCA.

[7] = tested on: Arc protein in DIV14 hippocampal neurons; experiment: Arc immunocytochemistry in cultured hippocampal neurons; format: cell-based, mouse; details: emetine 10 ng/ml, 10 min
Procedure: Immunocytochemistry of cultured neurons was performed as described (Shepherd et al., Neuron, 52, 475-484 (2006)). Briefly, DIV14 primary hippocampal neurons were fixed in fixation solution (4% paraformaldehyde, 4% sucrose containing 1× PBS) for 20 min at 4° C. and were permeabilized with 0.2% Triton X-100 in PBS for 10 min 4° C. Cells were then blocked for 1 hr at room temperature in 10% normal goat serum (NGS). Primary antibodies were diluted (1:250 of phospho-eEF2 antibody, 1:500 of PSD95, 1:300 for Arc) in 10% NGS and incubated with neurons for overnight at 4° C. Alexa 488, or Alexa 555-conjugated secondary antibodies (1:500; Molecular Probes) were diluted in 10% NGS and incubated at room temperature for 1 hr. Coverslips were mounted with PermaFluor containing DAPI (Invitrogen). All images were taken with same exposure and setting using Zeiss 510 Meta confocal microscope. Quantification of Arc levels was carried out using Image J software. For the measurement of dendritic Arc levels, average pixel intensity was measured in the primary dendrites 20 μm away from the soma.

[8] = tested on: Arc mRNA in cultured neurons; experiment: Real-time RT-PCR of Arc mRNA; format: cell-based; details: BDNF 10 ng/ml at 40 min; forskolin 50 μM at 20 min; DHPG at 20 and 40 min after stimulation
Procedure: RNA samples from neuronal cultures were prepared using the PARIS kit (Ambion) according to the manufacturer's protocol. Following RNA extraction, samples were treated with DNase to remove contaminating DNA prior to cDNA synthesis. Total RNA was reverse transcribed using the SuperScript II First Strand Synthesis System for RT-PCR (Invitrogen) according to the manufacturer's protocol. A negative control without reverse transcriptase was included.
Primer specificity was verified by melt curve analysis. PCR amplification of cDNA was performed using the BioRad iCycler Real-Time Detection System (BioRad Laboratories). cDNA (1 μl) was added to 24 μl of 1× reaction master mix (3 mM MgCl2, KCl, Tris-HCl, iTaq DNA polymerase, 25 units/ml SYBR Green 1, 0.2 mM each dNTPs, 10 nM fluorescein and 500 nM each gene specific primers). […]
GAPDH was used to normalize data. The threshold for detection of PCR product above background was set at 10× the standard deviation of the mean background fluorescence for all reactions. Background fluorescence was determined from cycles 1-5 prior to the exponential amplification of product and subtracted from the raw fluorescence of each reaction/cycle. […] Threshold cycle (CT; number of cycles to reach threshold of detection) was determined for each reaction.
Relative gene expression was determined using the 2^−ΔΔCT method (Livak, et al., Methods 25, 402-408 (2001)). […]

Molecule: NC1=N[C@H](O)[C@H]2[C@H]3O[C@]4(O)O[C@@H]([C@@H](O)[C@@]2(N1)[C@@H]4O)[C@]3(O)CO [TTX, tetrodotoxin]
- surface expression of GluR1 [1]: increased the surface expression of GluR1

Molecule: Ac-RKKYKFNEDTERRRFL [eEF2p]
- efficiency as substrate compared with the MH-U peptide [2]: two orders of magnitude more efficient

Molecule: CCCCCCCCCCCCC/C=C/[C@@H](O)[C@@H](N)COP(=O)(O)O [Sphingosine-1-phosphate, sphingosine-1-phosphate]
- inhibition of eEF2K activity in vitro [3]: inhibit eEF2K activity
- inhibition of eEF2K activity in vitro ([3]; listed as sphingosine-1-phosphate): inhibitor of eEF2 kinase

Molecule: Cc1c2oc3c(C)ccc(C(=O)N[C@@H]4C(=O)N[C@H](C(C)C)C(=O)N5CCC[C@H]5C(=O)N(C)CC(=O)N(C)[C@@H](C(C)C)C(=O)O[C@@H]4C)c3nc-2c(C(=O)N[C@@H]2C(=O)N[C@H](C(C)C)C(=O)N3CCC[C@H]3C(=O)N(C)CC(=O)N(C)[C@@H](C(C)C)C(=O)O[C@@H]2C)c(N)c1=O [Actinomycin D] (I: T[dV]P[Sar][NMeV] / II: T[dV]P[Sar][NMeV]; ester I:1-I:C, II:1-II:C; linker I:N-II:N via Actinocin(9to1))
- effect on induction of Arc protein by DHPG (5 min) [4]: did not alter; also recorded: did not block
- basal levels of Arc with transcription inhibitor ([4]; ActD 10 μM, 1 hr): decreased the basal levels of Arc

Molecule: C[C@@H]1C[C@@H]([C@H](O)CC2CC(=O)NC(=O)C2)C(=O)[C@@H](C)C1 [cycloheximide]
- fEPSP slope, low dose cycloheximide + DHPG [5]: 75.7±7.4 % of baseline and 69.0±2.6 % of baseline
- DHPG-LTD in the presence of high dose cycloheximide ([5]; Fmr1 KO slices): 72.3±4.8 % of baseline
- DHPG-LTD in the presence of high dose cycloheximide ([5]; WT (FVB) slices): 95.5±2.9 % of baseline
- baseline synaptic transmission, low dose cycloheximide without mGluR stimulation ([5]; WT slices): 101.2±2.0%
- baseline synaptic transmission, low dose cycloheximide without mGluR stimulation ([5]; eEF2K KO slices): 100.4±4.6%
- effect on induction of Arc protein by DHPG (5 min) [4]: blocked
- induction of Arc, high dose cycloheximide ([4]; >1 uM, WT and eEF2K KO neurons): did not induce Arc
- level of Arc protein, low dose cycloheximide ([4]; WT neurons, low dose (50-100 nM)): increased Arc protein
- level of Arc protein, low dose cycloheximide ([4]; WT neurons, low dose (50-100 nM), listed as CHX): increased the level of Arc protein
- level of Arc protein, low dose cycloheximide ([4]; eEF2K KO neurons, 50 nM and 100 nM): increased the level of Arc protein
- total incorporation of 35S labeled methionine and cysteine into TCA precipitant [6]: ~60%

Molecule: CC(C)C[C@@H](C=O)NC(=O)[C@H](CC(C)C)NC(=O)[C@H](CC(C)C)NC(=O)OCc1ccccc1 [MG132] (Cbz-Leu-Leu-Leu-aldehyde)
- level of Arc protein with proteasome inhibitor ([4]; MG132 10 μM, 1 hr): increased the basal level of Arc protein; also recorded: increased the levels of Arc

Molecule: CC[C@H]1CN2CCc3cc(OC)c(OC)cc3[C@@H]2C[C@@H]1C[C@H]1NCCc2cc(OC)c(OC)cc21 [emetine]
- effect on rapid DHPG-induced increase of Arc (immunocytochemistry) [7]: blocked

B1: BDNF: BDNF, applied at 10 ng/ml to neurons (protein, UniProt P23560 19-247, looked up)
Neurotrophic factor BDNF …: APMKEANIRGQGGLAYPGVRTHGTLESVNGPKAGSRGLTSLADTFEHVIEELLDEDQKVRPNEENNKDADLYTSRVMLSSQVPLEPPLLFLLEEYKNYLDAANMSMRVRRHSDPARRGELSVCDSISEWVTAADKKTAVDMSGGTVTVLEKVPVSKGQLKQYFYETKCNPMGYTKEGCRGIDKRHWNSQCRTTQSYVRALTMDSKKRIGWRFIRIDTSCVCTLTIKRGR
- level of Arc mRNA [8]: induced the level of Arc mRNA
- level of Arc protein after BDNF ([4]; 40 min after treatment): increased Arc protein expression; also recorded: increased the level of Arc protein
- level of Arc protein after BDNF ([4]; after 5 min): no change
